Reference: patent publication US8802597B2, “Herbicidal pyrimidines” (E I du Pont de Nemours and Company, priority 2003, dated 2014)

Columns and labels:
Format in all cases: in vivo
[1] = system: chickweed (Stellaria media); experiment: Test C postemergence; conditions: for Chickweed plant response rating: 62 g ai/ha, scale 0 to 100 (0 no effect, 100 complete control); for Plant response rating, Chickweed: scale 0 to 100
In short: (§1)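 Seeds sown and sprayed preemergence with test compound in non-phytotoxic solvent containing surfactant; postemergence sprays, same formulation, went onto plants 2 to 18 cm tall (1- to 4-leaf stage). Plants held in greenhouse 12 to 14 days, then visually rated against untreated controls on a 0–100 scale (0 no effect, 100 complete control).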

[2] = system: woolly cupgrass (Eriochloa villosa); experiment: Test C pre/postemergence; conditions: for Cupgrass, Woolly plant response rating: scale 0 to 100 (0 no effect, 100 complete control)
In short: as §1

[3] = system: common ragweed (Ambrosia elatior); experiment: Test C pre/postemergence; conditions: for Ragweed plant response rating: scale 0 to 100 (0 no effect, 100 complete control)
In short: as §1

[4] = system: bermudagrass (Cynodon dactylon); experiment: Test C pre/postemergence; conditions: for Bermudagrass plant response rating: scale 0 to 100 (0 no effect, 100 complete control)
In short: as §1

[5] = system: yellow nutsedge (Cyperus esculentus); experiment: Test C pre/postemergence; conditions: for Nutsedge, Yellow plant response rating: scale 0 to 100 (0 no effect, 100 complete control)
In short: as §1

[6] = system: pigweed (Amaranthus retroflexus); experiment: Test C pre/postemergence; conditions: for Pigweed plant response rating: scale 0 to 100 (0 no effect, 100 complete control)
In short: as §1

[7] = system: velvetleaf (Abutilon theophrasti); experiment: Test C pre/postemergence; conditions: for Velvetleaf plant response rating: scale 0 to 100 (0 no effect, 100 complete control)
In short: as §1

[8] = system: goosegrass (Eleusine indica); experiment: Test C pre/postemergence; conditions: for Goosegrass plant response rating: scale 0 to 100 (0 no effect, 100 complete control)
In short: as §1

[9] = Preemergence, 16 g ai/ha, scale 0 to 100, 0 no effect, 100 complete control
[10] = Preemergence, 31 g ai/ha, scale 0 to 100, 0 no effect, 100 complete control
[11] = Preemergence, 62 g ai/ha, scale 0 to 100, 0 no effect, 100 complete control
[12] = Preemergence, 125 g ai/ha, scale 0 to 100
[13] = Postemergence, 125 g ai/ha, scale 0 to 100
[14] = Postemergence, 250 g ai/ha, scale 0 to 100
[15] = Preemergence, 250 g ai/ha, scale 0 to 100

COC(=O)c1nc(C2CC2)nc(N=CN(C)C)c1Br [Compound 19]
Plant response rating (scale of 0 to 100), Chickweed ([1]; 16 g ai/ha): 0
Plant response rating (scale of 0 to 100), Chickweed ([1]; 31 g ai/ha): 0
Chickweed plant response rating [1]: 5
Plant response rating, Chickweed ([1]; 125 g ai/ha): 5
Plant response rating (scale of 0 to 100), Cupgrass, Woolly ([2]; Postemergence, 16 g ai/ha): 0
Plant response rating (scale of 0 to 100), Cupgrass, Woolly ([2]; Postemergence, 31 g ai/ha): 25
Cupgrass, Woolly plant response rating ([2]; Postemergence, 62 g ai/ha): 65
Cupgrass, Woolly plant response rating ([2]; Postemergence, 125 g ai/ha): 65
Plant response rating, Cupgrass, Woolly [2, 9]: 0
Plant response rating, Cupgrass, Woolly [2, 10]: 0
Plant response rating, Cupgrass, Woolly [2, 11]: 0
Plant response rating, Cupgrass, Woolly [2, 12]: 0
Plant response rating (scale of 0 to 100), Ragweed ([3]; Postemergence, 16 g ai/ha): 35
Plant response rating (scale of 0 to 100), Ragweed ([3]; Postemergence, 31 g ai/ha): 40
Ragweed plant response rating ([3]; Postemergence, 62 g ai/ha): 70
Ragweed plant response rating ([3]; Postemergence, 125 g ai/ha): 80
Plant response rating, Ragweed [3, 9]: 55
Plant response rating, Ragweed [3, 10]: 55
Plant response rating, Ragweed [3, 11]: 70
Plant response rating, Ragweed [3, 12]: 80
Plant response rating (scale of 0 to 100), Bermudagrass ([4]; Postemergence, 16 g ai/ha): 0
Plant response rating (scale of 0 to 100), Bermudagrass ([4]; Postemergence, 31 g ai/ha): 5
Bermudagrass plant response rating ([4]; Postemergence, 62 g ai/ha): 30
Plant response rating, Bermudagrass [4, 13]: 45
Plant response rating, Bermudagrass [4, 9]: 0
Plant response rating, Bermudagrass [4, 10]: 0
Plant response rating, Bermudagrass [4, 11]: 0
Plant response rating, Bermudagrass [4, 12]: 0
Plant response rating (scale of 0 to 100), Nutsedge, Yellow ([5]; Postemergence, 16 g ai/ha): 0
Plant response rating (scale of 0 to 100), Nutsedge, Yellow ([5]; Postemergence, 31 g ai/ha): 0
Nutsedge, Yellow plant response rating ([5]; Postemergence, 62 g ai/ha): 0
Nutsedge, Yellow plant response rating ([5]; Postemergence, 125 g ai/ha): 0
Plant response rating, Nutsedge, Yellow [5, 9]: 0
Plant response rating, Nutsedge, Yellow [5, 10]: 0
Plant response rating, Nutsedge, Yellow [5, 11]: 0
Plant response rating, Nutsedge, Yellow [5, 12]: 0
Plant response rating (scale of 0 to 100), Pigweed ([6]; Postemergence, 16 g ai/ha): 50
Plant response rating (scale of 0 to 100), Pigweed ([6]; Postemergence, 31 g ai/ha): 50
Pigweed plant response rating ([6]; Postemergence, 62 g ai/ha): 65
Pigweed plant response rating ([6]; Postemergence, 125 g ai/ha): 65
Plant response rating, Pigweed [6, 9]: 35
Plant response rating, Pigweed [6, 10]: 45
Plant response rating, Pigweed [6, 11]: 70
Plant response rating, Pigweed [6, 12]: 95
Plant response rating (scale of 0 to 100), Velvetleaf ([7]; Postemergence, 16 g ai/ha): 30
Plant response rating (scale of 0 to 100), Velvetleaf ([7]; Postemergence, 31 g ai/ha): 40
Velvetleaf plant response rating ([7]; Postemergence, 62 g ai/ha): 50
Velvetleaf plant response rating ([7]; Postemergence, 125 g ai/ha): 60
Plant response rating, Velvetleaf [7, 9]: 25
Plant response rating, Velvetleaf [7, 10]: 35
Plant response rating, Velvetleaf [7, 11]: 40
Plant response rating, Velvetleaf [7, 12]: 65
Plant response rating (scale of 0 to 100), Goosegrass ([8]; Postemergence, 16 g ai/ha): 0
Plant response rating (scale of 0 to 100), Goosegrass ([8]; Postemergence, 31 g ai/ha): 0
Goosegrass plant response rating ([8]; Postemergence, 62 g ai/ha): 0
Goosegrass plant response rating ([8]; Postemergence, 125 g ai/ha): 0
Plant response rating, Goosegrass [8, 9]: 0
Plant response rating, Goosegrass [8, 10]: 0
Plant response rating, Goosegrass [8, 11]: 0
Plant response rating, Goosegrass [8, 12]: 0

CCCCOC(=O)c1nc(C2CC2)nc(N)c1Br [Compound 16]
Plant response rating (scale of 0 to 100), Chickweed ([1]; 31 g ai/ha): 0
Chickweed plant response rating [1]: 0
Plant response rating, Chickweed ([1]; 125 g ai/ha): 20
Plant response rating, Chickweed ([1]; 250 g ai/ha): 35
Plant response rating (scale of 0 to 100), Cupgrass, Woolly ([2]; Postemergence, 31 g ai/ha): 0
Cupgrass, Woolly plant response rating ([2]; Postemergence, 62 g ai/ha): 0
Cupgrass, Woolly plant response rating ([2]; Postemergence, 125 g ai/ha): 0
Plant response rating, Cupgrass, Woolly [2, 14]: 65
Plant response rating, Cupgrass, Woolly [2, 10]: 0
Plant response rating, Cupgrass, Woolly [2, 11]: 0
Plant response rating, Cupgrass, Woolly [2, 12]: 15
Plant response rating, Cupgrass, Woolly [2, 15]: 65
Plant response rating (scale of 0 to 100), Ragweed ([3]; Postemergence, 31 g ai/ha): 60
Ragweed plant response rating ([3]; Postemergence, 62 g ai/ha): 85
Ragweed plant response rating ([3]; Postemergence, 125 g ai/ha): 95
Plant response rating, Ragweed [3, 14]: 95
Plant response rating, Ragweed [3, 10]: 45
Plant response rating, Ragweed [3, 11]: 90
Plant response rating, Ragweed [3, 12]: 95
Plant response rating, Ragweed [3, 15]: 100
Plant response rating (scale of 0 to 100), Bermudagrass ([4]; Postemergence, 31 g ai/ha): 0
Bermudagrass plant response rating ([4]; Postemergence, 62 g ai/ha): 0
Plant response rating, Bermudagrass [4, 14]: 75
Plant response rating, Bermudagrass [4, 13]: 60
Plant response rating, Bermudagrass [4, 10]: 0
Plant response rating, Bermudagrass [4, 11]: 0
Plant response rating, Bermudagrass [4, 12]: 0
Plant response rating, Bermudagrass [4, 15]: 0
Plant response rating (scale of 0 to 100), Nutsedge, Yellow ([5]; Postemergence, 31 g ai/ha): 0
Nutsedge, Yellow plant response rating ([5]; Postemergence, 62 g ai/ha): 0
Nutsedge, Yellow plant response rating ([5]; Postemergence, 125 g ai/ha): 0
Plant response rating, Nutsedge, Yellow [5, 14]: 0
Plant response rating, Nutsedge, Yellow [5, 10]: 0
Plant response rating, Nutsedge, Yellow [5, 11]: 0
Plant response rating, Nutsedge, Yellow [5, 12]: 0
Plant response rating, Nutsedge, Yellow [5, 15]: 0
Plant response rating (scale of 0 to 100), Pigweed ([6]; Postemergence, 31 g ai/ha): 85
Pigweed plant response rating ([6]; Postemergence, 62 g ai/ha): 90
Pigweed plant response rating ([6]; Postemergence, 125 g ai/ha): 95
Plant response rating, Pigweed [6, 14]: 95
Plant response rating, Pigweed [6, 10]: 85
Plant response rating, Pigweed [6, 11]: 95
Plant response rating, Pigweed [6, 12]: 100
Plant response rating, Pigweed [6, 15]: 100
Plant response rating (scale of 0 to 100), Velvetleaf ([7]; Postemergence, 31 g ai/ha): 55
Velvetleaf plant response rating ([7]; Postemergence, 62 g ai/ha): 60
Velvetleaf plant response rating ([7]; Postemergence, 125 g ai/ha): 65
Plant response rating, Velvetleaf [7, 14]: 90
Plant response rating, Velvetleaf [7, 10]: 25
Plant response rating, Velvetleaf [7, 11]: 90
Plant response rating, Velvetleaf [7, 12]: 95
Plant response rating, Velvetleaf [7, 15]: 100
Plant response rating (scale of 0 to 100), Goosegrass ([8]; Postemergence, 31 g ai/ha): 0
Goosegrass plant response rating ([8]; Postemergence, 62 g ai/ha): 0
Goosegrass plant response rating ([8]; Postemergence, 125 g ai/ha): 0
Plant response rating, Goosegrass [8, 14]: 20
Plant response rating, Goosegrass [8, 10]: 0
Plant response rating, Goosegrass [8, 11]: 0
Plant response rating, Goosegrass [8, 12]: 0
Plant response rating, Goosegrass [8, 15]: 0
